In PubChem BioAssay (NCI):
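Method: 48-hour compound exposure of cells in 96-well plates, five concentrations, linear interpolation of endpoints. TGI marks complete inhibition of growth.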

Experiments:
Assay in all cases: growth of human tumour cells (NCI), 48 h
[1] = test system: RPMI-8226 leukemia
[2] = test system: LOX IMVI melanoma
[3] = test system: SW-620 colon
[4] = test system: MDA-MB-435
[5] = test system: SK-MEL-2 melanoma
[6] = test system: NCI-H226 lung
[7] = test system: SF-539 CNS
[8] = test system: A549 NSCLC
[9] = test system: RXF 393 renal
[10] = test system: U251 CNS
[11] = test system: PC-3 prostate
[12] = test system: NCI-H522 lung
[13] = test system: OVCAR-8 ovarian
[14] = test system: K-562 leukemia
[15] = test system: SR leukemia
[16] = test system: CCRF-CEM leukemia
[17] = test system: TK-10 renal
[18] = test system: CAKI-1 renal
[19] = test system: HCT-15 colon
[20] = test system: MDA-N
[21] = test system: HS 578T breast
[22] = test system: MOLT-4 leukemia
[23] = test system: HCT-116 colon
[24] = test system: MALME-3M melanoma
[25] = test system: M14 melanoma
[26] = test system: KM12 colon
[27] = test system: SK-MEL-28 melanoma
[28] = test system: HT29 colon
[29] = test system: SNB-75 CNS
[30] = test system: SNB-19 CNS
[31] = test system: T-47D breast
[32] = test system: SF-268 CNS
[33] = test system: A498 renal
[34] = test system: EKVX NSCLC
[35] = test system: SK-OV-3 ovarian
[36] = test system: NCI-H23 lung
[37] = test system: DU-145 prostate
[38] = test system: HOP-92 NSCLC
[39] = test system: SF-295 CNS
[40] = test system: MDA-MB-231 breast
[41] = test system: OVCAR-4 ovarian
[42] = test system: IGROV1 ovarian
[43] = test system: MCF7 breast
[44] = test system: ACHN renal
[45] = test system: UACC-62 melanoma
[46] = test system: UO-31 renal
[47] = test system: OVCAR-3 ovarian
[48] = test system: HOP-62 NSCLC
[49] = test system: NCI/ADR-RES ovarian
[50] = test system: OVCAR-5 ovarian
[51] = test system: BT-549 breast
[52] = test system: COLO 205 colon
[53] = test system: HL-60(TB) leukemia
[54] = test system: 786-0 renal
[55] = test system: SK-MEL-5 melanoma
[56] = test system: SN12C renal
[57] = test system: NCI-H460 lung
[58] = test system: HCC-2998 colon
[59] = test system: UACC-257 melanoma

In the case of `CC(C)(C)c1cc(C2NC(=O)NC2=O)cc(C(C)(C)C)c1O` (stereo unspecified), the TGI [1] is reported as over 100 µM, the TGI [2] is reported as over 100 µM and the TGI [3] is reported as over 100 µM. For the same compound, the TGI [4] was over 100 µM, the TGI [5] was over 100 µM and the TGI [6] was over 100 µM. For the same compound, the TGI [7] was over 100 µM, the TGI [8] was over 100 µM and the TGI [9] was 95.7 µM. The TGI [10] was over 100 µM, the TGI [11] was over 100 µM and the TGI [12] was over 100 µM. The TGI [13] was over 100 µM, the TGI [14] was over 100 µM and the TGI [15] was over 100 µM. For the same compound, the TGI [16] was over 100 µM, the TGI [17] was 95.2 µM and the TGI [18] was over 100 µM. It also gave a TGI [19] of over 100 µM, a TGI [20] of over 100 µM and a TGI [21] of 69.8 µM. For the same compound, the TGI [22] was over 100 µM, the TGI [23] was 84.5 µM and the TGI [24] was over 100 µM. The TGI [25] was over 100 µM, the TGI [26] was 48.4 µM and the TGI [27] was over 100 µM. The TGI [28] was over 100 µM, the TGI [29] was 84.4 µM and the TGI [30] was over 100 µM. For the same compound, the TGI [31] was over 100 µM, the TGI [32] was over 100 µM and the TGI [33] was over 100 µM. The TGI [34] was over 100 µM, the TGI [35] was over 100 µM and the TGI [36] was over 100 µM. The TGI [37] was over 100 µM, the TGI [38] was over 100 µM and the TGI [39] was over 100 µM. It also gave a TGI [40] of over 100 µM, a TGI [41] of over 100 µM and a TGI [42] of over 100 µM. It also gave a TGI [43] of 83.3 µM, a TGI [44] of over 100 µM and a TGI [45] of over 100 µM. The TGI [46] was over 100 µM, the TGI [47] was over 100 µM and the TGI [48] was over 100 µM. For the same compound, the TGI [49] was over 100 µM, the TGI [50] was over 100 µM and the TGI [51] was over 100 µM. The TGI [52] was over 100 µM.

For `COc1cc(C2c3cc4c(cc3OC(N3CCOCC3)C2C)OCO4)cc(OC)c1OC(C)=O` (stereo unspecified), the TGI [1] was over 100 µM, the TGI [2] was over 100 µM and the TGI [3] was over 100 µM. It also gave a TGI [4] of 14.4 µM, a TGI [5] of 41.1 µM and a TGI [6] of 62.7 µM. The TGI [7] was 40.2 µM, the TGI [8] was over 100 µM and the TGI [9] was over 62.1 µM. For the same compound, the TGI [10] was over 80.9 µM, the TGI [11] was over 100 µM and the TGI [12] was 33.2 µM. The TGI [13] was over 100 µM, the TGI [14] was 49.2 µM and the TGI [53] was over 59 µM. The TGI [15] was over 72 µM, the TGI [16] was over 100 µM and the TGI [54] was over 100 µM. It also gave a TGI [17] of over 100 µM, a TGI [18] of over 100 µM and a TGI [55] of over 51 µM. It also gave a TGI [19] of over 100 µM, a TGI [20] of 4.94 µM and a TGI [21] of 25.7 µM. The TGI [22] was over 100 µM, the TGI [23] was 60.8 µM and the TGI [24] was over 85.7 µM. The TGI [25] was over 56.8 µM, the TGI [26] was over 100 µM and the TGI [27] was over 91.6 µM. The TGI [28] was 57.9 µM, the TGI [29] was 25.2 µM and the TGI [30] was over 46.4 µM. It also gave a TGI [31] of over 81.8 µM, a TGI [32] of over 100 µM and a TGI [33] of 81.3 µM. It also gave a TGI [56] of over 84.2 µM, a TGI [34] of over 100 µM and a TGI [35] of over 100 µM. The TGI [36] was over 95.2 µM, the TGI [37] was over 92.5 µM and the TGI [38] was over 100 µM. For the same compound, the TGI [39] was 49 µM, the TGI [40] was 99.2 µM and the TGI [41] was over 100 µM. The TGI [42] was over 100 µM, the TGI [43] was over 100 µM and the TGI [44] was over 100 µM. It also gave a TGI [45] of over 84.5 µM, a TGI [46] of over 100 µM and a TGI [57] of over 100 µM. For the same compound, the TGI [58] was 50.5 µM, the TGI [47] was 59.4 µM and the TGI [48] was over 95.5 µM. The TGI [49] was 30.8 µM, the TGI [50] was over 100 µM and the TGI [51] was over 100 µM. The TGI [59] was over 100 µM and the TGI [52] was 52 µM.

`COC1=C(OC)C(=O)C(Cc2c(Cl)nc3n2CCS3)=C(C)C1=O` was tested, and the TGI [1] was 26.9 µM, the TGI [2] was 29.3 µM and the TGI [3] was 33.8 µM. The TGI [4] was 29.2 µM, the TGI [5] was 32.2 µM and the TGI [7] was 28.1 µM. For the same compound, the TGI [8] was 40.6 µM, the TGI [9] was 36.4 µM and the TGI [10] was 35.2 µM. The TGI [11] was 64.2 µM, the TGI [12] was 25.4 µM and the TGI [13] was 29.8 µM. For the same compound, the TGI [14] was 39.9 µM, the TGI [53] was 6.4 µM and the TGI [15] was 25.9 µM. For the same compound, the TGI [16] was 8.98 µM, the TGI [54] was 37.9 µM and the TGI [17] was 32 µM. For the same compound, the TGI [18] was 46.7 µM, the TGI [55] was 23.9 µM and the TGI [19] was 39.8 µM. For the same compound, the TGI [20] was 26.8 µM, the TGI [21] was 66.1 µM and the TGI [22] was 3.28 µM. For the same compound, the TGI [23] was 25.3 µM, the TGI [24] was 21.6 µM and the TGI [25] was 27.2 µM. It also gave a TGI [26] of 30.8 µM, a TGI [27] of 27.2 µM and a TGI [28] of 35.6 µM. It also gave a TGI [30] of 33.1 µM, a TGI [31] of 54.1 µM and a TGI [32] of 41.3 µM. For the same compound, the TGI [33] was 35.6 µM, the TGI [56] was 31.3 µM and the TGI [34] was 26.3 µM. For the same compound, the TGI [35] was 25.1 µM, the TGI [36] was 47.5 µM and the TGI [37] was 40 µM. It also gave a TGI [39] of 30.4 µM, a TGI [40] of 27.5 µM and a TGI [41] of 21 µM. For the same compound, the TGI [42] was 30.5 µM, the TGI [43] was 33 µM and the TGI [44] was 33.2 µM. The TGI [45] was 26.4 µM, the TGI [46] was 28.3 µM and the TGI [57] was 30.8 µM. It also gave a TGI [58] of 37.6 µM, a TGI [47] of 37.2 µM and a TGI [48] of 29.1 µM. The TGI [49] was 34.2 µM, the TGI [50] was 36 µM and the TGI [51] was 27.5 µM. For the same compound, the TGI [59] was 22.2 µM and the TGI [52] was 31.5 µM.

`COc1cccc(/C=N/n2c(Cc3ccc(Cl)cc3)n[nH]c2=O)c1` gave a TGI [1] of over 100 µM, a TGI [2] of over 100 µM and a TGI [3] of over 100 µM. It also gave a TGI [4] of over 100 µM, a TGI [5] of 58.6 µM and a TGI [6] of over 72.3 µM. For the same compound, the TGI [7] was 32.6 µM, the TGI [8] was over 100 µM and the TGI [9] was 11.2 µM. For the same compound, the TGI [10] was 55.2 µM, the TGI [11] was over 100 µM and the TGI [12] was 50.6 µM. For the same compound, the TGI [13] was 36.7 µM, the TGI [14] was over 100 µM and the TGI [53] was over 100 µM. The TGI [15] was over 100 µM, the TGI [16] was over 100 µM and the TGI [54] was over 71.9 µM. For the same compound, the TGI [17] was over 100 µM, the TGI [18] was over 81.9 µM and the TGI [55] was over 100 µM. It also gave a TGI [19] of over 100 µM, a TGI [20] of over 100 µM and a TGI [21] of 72.7 µM. It also gave a TGI [22] of over 100 µM, a TGI [23] of over 100 µM and a TGI [24] of over 100 µM. For the same compound, the TGI [25] was over 100 µM, the TGI [26] was over 100 µM and the TGI [27] was over 100 µM. For the same compound, the TGI [28] was 34 µM, the TGI [29] was 25.3 µM and the TGI [30] was 67.8 µM. The TGI [31] was over 68.2 µM, the TGI [32] was 34.9 µM and the TGI [33] was over 100 µM. For the same compound, the TGI [56] was 71 µM, the TGI [34] was over 84 µM and the TGI [35] was 81.9 µM. For the same compound, the TGI [36] was over 70.3 µM, the TGI [37] was over 100 µM and the TGI [38] was 52.1 µM. The TGI [39] was 35.4 µM, the TGI [40] was 48.2 µM and the TGI [41] was over 100 µM. The TGI [42] was over 100 µM, the TGI [43] was over 100 µM and the TGI [44] was 67.3 µM. For the same compound, the TGI [45] was over 82.9 µM, the TGI [46] was over 100 µM and the TGI [57] was over 100 µM. It also gave a TGI [58] of over 100 µM, a TGI [47] of over 100 µM and a TGI [48] of 43.9 µM. The TGI [49] was over 88.7 µM, the TGI [50] was over 100 µM and the TGI [51] was 57.1 µM. It also gave a TGI [59] of over 100 µM and a TGI [52] of over 100 µM.
